# Reference: ChEMBL document CHEMBL1201862, “PubChem BioAssay data set” (2004)
# Calls of active or inactive are those of the source.
# What was measured:
# [1] = target: Polyadenylate-binding protein 1 (Homo sapiens, UniProt P11940); assay: PABP poly(A) RNA binding inhibitors, primary screen, biochemical, fluorescence polarization, uHTS (AID 2014)
# [2] = target: Eukaryotic translation initiation factor 4H (Homo sapiens, UniProt Q15056); assay: human eIF4H binding inhibitors, primary screen, translation initiation inhibitor project, biochemical, uHTS, fluorescence polarization (AID 2012)
# Tumor necrosis factor = Tumor necrosis factor (Homo sapiens, UniProt P01375); assay: TNFa-triggered NF-kB activation inhibitors, SAR follow-up, cell-based, revised (AID 2337); type: functional
# Chain of Tumor necrosis factor (P01375 whole entry): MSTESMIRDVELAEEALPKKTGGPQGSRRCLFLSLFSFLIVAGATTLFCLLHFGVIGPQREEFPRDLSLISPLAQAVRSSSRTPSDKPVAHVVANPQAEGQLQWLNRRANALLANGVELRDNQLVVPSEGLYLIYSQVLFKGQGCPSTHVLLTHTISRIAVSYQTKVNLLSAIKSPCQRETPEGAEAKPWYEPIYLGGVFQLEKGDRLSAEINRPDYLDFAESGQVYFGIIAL
# HEK293 [3] = assay: cells; conditions: Homo sapiens
# HEK293 [4] = assay: cells; type: functional, cell-based; conditions: Homo sapiens
# HEK293 [5] = assay: NOD1 signaling inhibitors, primary screen, cell-based, luminescence, uHTS (AID 1578); type: functional; conditions: Homo sapiens
# HEK293 [6] = assay: NOD2 signaling inhibitors in MDP-stimulated cells, cell-based, uHTS, luminescence (AID 2001); type: functional; conditions: Homo sapiens
# [7] = target: Nucleotide-binding oligomerization domain-containing protein 2 (Homo sapiens, UniProt Q9HC29); assay: PubChem AID 2334; type: functional
# Chain of Nucleotide-binding oligomerization domain-containing protein 2 (Q9HC29 whole entry, the tested form may be a part): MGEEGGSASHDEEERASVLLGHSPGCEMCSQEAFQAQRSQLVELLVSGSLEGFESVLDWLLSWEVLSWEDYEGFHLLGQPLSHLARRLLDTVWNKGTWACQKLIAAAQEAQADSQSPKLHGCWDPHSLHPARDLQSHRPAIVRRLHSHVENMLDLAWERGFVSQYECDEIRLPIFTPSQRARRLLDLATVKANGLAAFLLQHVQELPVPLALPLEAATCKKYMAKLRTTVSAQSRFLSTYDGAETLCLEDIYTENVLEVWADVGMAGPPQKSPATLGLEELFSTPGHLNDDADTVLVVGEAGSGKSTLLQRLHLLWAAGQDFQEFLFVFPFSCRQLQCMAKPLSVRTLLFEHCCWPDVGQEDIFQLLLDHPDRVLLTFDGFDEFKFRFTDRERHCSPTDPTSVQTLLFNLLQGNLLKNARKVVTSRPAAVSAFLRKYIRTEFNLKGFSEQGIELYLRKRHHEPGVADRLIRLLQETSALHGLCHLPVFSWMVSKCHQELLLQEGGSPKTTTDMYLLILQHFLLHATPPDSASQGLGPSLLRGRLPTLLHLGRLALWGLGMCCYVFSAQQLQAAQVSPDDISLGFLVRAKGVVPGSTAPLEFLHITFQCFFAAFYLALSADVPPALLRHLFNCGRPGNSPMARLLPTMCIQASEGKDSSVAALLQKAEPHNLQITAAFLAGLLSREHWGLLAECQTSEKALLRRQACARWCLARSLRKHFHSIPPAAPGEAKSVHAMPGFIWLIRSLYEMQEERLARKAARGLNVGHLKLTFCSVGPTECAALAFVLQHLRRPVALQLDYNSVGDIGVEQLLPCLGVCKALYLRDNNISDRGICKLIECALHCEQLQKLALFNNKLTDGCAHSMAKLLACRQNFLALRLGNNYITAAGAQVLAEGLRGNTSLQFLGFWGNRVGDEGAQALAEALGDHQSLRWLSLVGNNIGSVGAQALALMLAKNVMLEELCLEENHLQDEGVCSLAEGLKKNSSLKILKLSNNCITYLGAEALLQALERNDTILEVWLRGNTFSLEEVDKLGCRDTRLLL
# [8] = target: T1, Nucleotide-binding oligomerization domain-containing protein 1 (Homo sapiens, UniProt Q9Y239); assay: NOD1 signaling inhibitors, SAR follow-up, revised (AID 2333); type: functional
# T1 sequence (Q9Y239 whole entry): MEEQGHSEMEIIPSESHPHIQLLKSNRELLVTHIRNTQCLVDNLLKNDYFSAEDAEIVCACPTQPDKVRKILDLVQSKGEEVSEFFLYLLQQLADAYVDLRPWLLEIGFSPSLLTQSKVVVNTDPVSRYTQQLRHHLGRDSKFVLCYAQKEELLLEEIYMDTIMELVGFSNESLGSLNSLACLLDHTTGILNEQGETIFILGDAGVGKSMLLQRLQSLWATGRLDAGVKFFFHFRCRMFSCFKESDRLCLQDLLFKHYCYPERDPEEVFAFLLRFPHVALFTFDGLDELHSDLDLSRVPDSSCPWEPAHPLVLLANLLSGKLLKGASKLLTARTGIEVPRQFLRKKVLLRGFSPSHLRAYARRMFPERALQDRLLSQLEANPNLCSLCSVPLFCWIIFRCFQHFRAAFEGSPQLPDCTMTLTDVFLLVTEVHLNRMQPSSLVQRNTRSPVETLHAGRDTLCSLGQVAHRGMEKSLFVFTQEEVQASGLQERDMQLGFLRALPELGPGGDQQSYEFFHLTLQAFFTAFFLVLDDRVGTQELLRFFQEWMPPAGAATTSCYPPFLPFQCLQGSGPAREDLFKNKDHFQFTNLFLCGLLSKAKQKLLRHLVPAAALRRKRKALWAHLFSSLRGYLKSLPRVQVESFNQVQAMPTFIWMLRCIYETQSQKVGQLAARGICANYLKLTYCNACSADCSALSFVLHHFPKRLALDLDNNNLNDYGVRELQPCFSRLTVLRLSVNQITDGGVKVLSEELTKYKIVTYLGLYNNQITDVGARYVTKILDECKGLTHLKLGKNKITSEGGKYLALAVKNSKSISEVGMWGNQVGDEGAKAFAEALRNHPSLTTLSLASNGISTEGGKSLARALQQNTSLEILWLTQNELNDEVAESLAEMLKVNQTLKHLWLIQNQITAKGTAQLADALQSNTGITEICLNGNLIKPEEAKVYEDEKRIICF
# HEK293 [9] = assay: cells; type: functional, cell-based; conditions: Homo sapiens; remark: listed apart in the source
# [10] = target: T2, Alkaline phosphatase, tissue-nonspecific isozyme (Homo sapiens, UniProt P05186)
# T2 sequence (P05186 whole entry): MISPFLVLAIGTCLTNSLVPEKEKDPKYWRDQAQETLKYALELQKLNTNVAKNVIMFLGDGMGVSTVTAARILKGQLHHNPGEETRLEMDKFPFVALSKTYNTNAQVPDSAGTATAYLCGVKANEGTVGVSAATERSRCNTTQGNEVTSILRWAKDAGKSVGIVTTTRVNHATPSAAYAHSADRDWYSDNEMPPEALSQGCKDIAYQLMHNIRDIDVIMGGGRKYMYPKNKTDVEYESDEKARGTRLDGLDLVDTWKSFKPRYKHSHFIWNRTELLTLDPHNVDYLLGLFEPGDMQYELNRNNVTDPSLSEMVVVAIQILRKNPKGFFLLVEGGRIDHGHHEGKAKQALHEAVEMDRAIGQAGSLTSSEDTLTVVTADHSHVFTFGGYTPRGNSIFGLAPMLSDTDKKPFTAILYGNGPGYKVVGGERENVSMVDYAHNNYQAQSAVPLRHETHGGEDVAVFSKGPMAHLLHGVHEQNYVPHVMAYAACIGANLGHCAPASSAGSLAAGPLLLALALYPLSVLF
# Streptococcus = assay: Group A Streptococcus viability loss, dose response, counter-screen for streptokinase expression inhibitor project, luminescence, BacTiterGlo (AID 1915); type: functional, organism-based;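 further: potency for reduction of bacterial viability or growth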
# [11] = test system: Streptococcus sp. 'group A'; assay: growth inhibition of control SK(-) GAS strain, dose response, counter-screen for streptokinase expression inhibitor project, luminescence, kanamycin, BacTiterGlo, confirmation (AID 1900); type: functional, organism-based
# [12] = target: T3, Heat shock factor protein 1 (Mus musculus, UniProt P38532); assay: inhibition of MG132-induced HSE-luciferase signal, confirmation, cell-based, NIH3T3, luminescence, dose retest (AID 2382); type: functional;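 further: NIH3T3 fibroblasts with HSF1-driven luciferase reporter stressed by proteasome inhibitor MG132; luminescence from HSF1-driven luciferase expression after 8 hours of MG132 stress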
# T3 sequence (P38532 whole entry): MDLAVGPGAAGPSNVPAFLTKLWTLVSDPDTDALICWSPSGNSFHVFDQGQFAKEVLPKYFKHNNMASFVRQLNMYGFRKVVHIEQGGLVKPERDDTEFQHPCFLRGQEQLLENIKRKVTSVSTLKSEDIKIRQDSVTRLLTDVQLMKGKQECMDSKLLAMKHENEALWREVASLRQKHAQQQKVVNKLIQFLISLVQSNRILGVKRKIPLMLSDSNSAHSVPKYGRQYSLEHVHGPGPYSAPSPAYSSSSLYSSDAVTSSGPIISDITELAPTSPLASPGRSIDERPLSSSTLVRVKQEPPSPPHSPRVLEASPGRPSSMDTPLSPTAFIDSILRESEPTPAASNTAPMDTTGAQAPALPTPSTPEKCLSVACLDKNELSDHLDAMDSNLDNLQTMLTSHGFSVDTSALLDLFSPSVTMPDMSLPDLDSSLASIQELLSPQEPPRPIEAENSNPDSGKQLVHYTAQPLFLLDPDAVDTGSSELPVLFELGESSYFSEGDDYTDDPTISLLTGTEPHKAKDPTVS
# Hexokinase HKDC1 = Hexokinase HKDC1 (Homo sapiens, UniProt Q2TB90); assay: HKDC1 hexokinase inhibitors, dose response, biochemical, W721R variant (AID 504729); type: functional
# Chain of Hexokinase HKDC1 (Q2TB90 whole entry): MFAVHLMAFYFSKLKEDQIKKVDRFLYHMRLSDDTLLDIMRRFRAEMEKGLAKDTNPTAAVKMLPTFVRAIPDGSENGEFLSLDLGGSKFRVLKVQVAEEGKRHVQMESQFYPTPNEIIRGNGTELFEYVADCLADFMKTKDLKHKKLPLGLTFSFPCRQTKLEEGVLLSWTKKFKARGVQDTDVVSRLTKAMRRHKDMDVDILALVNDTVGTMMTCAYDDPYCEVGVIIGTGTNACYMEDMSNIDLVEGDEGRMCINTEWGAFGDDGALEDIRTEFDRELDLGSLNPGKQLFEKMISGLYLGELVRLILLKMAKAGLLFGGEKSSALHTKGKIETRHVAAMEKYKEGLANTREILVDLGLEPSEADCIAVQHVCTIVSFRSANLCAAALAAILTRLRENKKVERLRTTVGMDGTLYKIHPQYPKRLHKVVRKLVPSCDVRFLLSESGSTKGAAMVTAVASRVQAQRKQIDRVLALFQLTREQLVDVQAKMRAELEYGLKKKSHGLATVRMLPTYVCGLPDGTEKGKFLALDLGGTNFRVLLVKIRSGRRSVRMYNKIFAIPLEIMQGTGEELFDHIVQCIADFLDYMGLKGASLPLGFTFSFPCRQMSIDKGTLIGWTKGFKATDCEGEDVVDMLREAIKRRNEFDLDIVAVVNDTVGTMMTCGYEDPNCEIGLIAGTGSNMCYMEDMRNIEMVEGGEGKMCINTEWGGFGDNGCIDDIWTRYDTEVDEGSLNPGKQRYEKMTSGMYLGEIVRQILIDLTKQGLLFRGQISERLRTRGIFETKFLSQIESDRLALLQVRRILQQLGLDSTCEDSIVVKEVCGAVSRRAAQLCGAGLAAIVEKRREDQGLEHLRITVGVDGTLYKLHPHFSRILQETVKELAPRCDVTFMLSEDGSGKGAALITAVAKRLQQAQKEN
# [13] = target: T4, Corticotropin-releasing factor receptor 2/Corticotropin-releasing factor-binding protein (Homo sapiens, UniProt P24387+Q13324); assay: activators of CRF receptor 2 with binding protein – uHTS hits, confirmation (AID 602473); type: functional; conditions: read-out: EC50_Mean
# T4 sequence (Q13324 whole entry): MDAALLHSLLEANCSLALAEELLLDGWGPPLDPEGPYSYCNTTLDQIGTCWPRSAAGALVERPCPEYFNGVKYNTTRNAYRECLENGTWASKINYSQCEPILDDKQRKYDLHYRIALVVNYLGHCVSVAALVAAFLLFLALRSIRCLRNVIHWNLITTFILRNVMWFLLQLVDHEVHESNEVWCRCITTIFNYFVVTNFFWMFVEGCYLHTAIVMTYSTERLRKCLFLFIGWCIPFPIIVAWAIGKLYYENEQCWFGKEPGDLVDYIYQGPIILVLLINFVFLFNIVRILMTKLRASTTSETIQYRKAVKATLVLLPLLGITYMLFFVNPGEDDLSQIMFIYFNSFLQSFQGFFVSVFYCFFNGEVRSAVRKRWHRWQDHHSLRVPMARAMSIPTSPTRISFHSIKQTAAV
# T4 sequence (P24387 whole entry): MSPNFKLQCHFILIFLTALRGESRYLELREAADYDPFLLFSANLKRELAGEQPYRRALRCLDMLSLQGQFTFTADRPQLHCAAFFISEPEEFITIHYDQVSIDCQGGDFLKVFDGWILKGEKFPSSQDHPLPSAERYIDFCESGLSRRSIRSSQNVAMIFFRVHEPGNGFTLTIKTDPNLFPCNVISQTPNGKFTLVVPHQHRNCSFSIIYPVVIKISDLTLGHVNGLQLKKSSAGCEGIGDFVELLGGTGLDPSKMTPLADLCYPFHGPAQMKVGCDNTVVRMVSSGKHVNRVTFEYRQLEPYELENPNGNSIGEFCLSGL
# Vero = Vero cell cytotoxicity, cytotoxicity control for flavivirus capping enzyme inhibitors (AID 588742); type: functional; conditions: Chlorocebus sabaeus
# Genome polyprotein = Genome polyprotein (dengue virus type 2, UniProt P29990); assay: Dengue-2 NS5 methyltransferase inhibitors, primary screen, biochemical, confirmation dose response (AID 588689); type: functional
# [14] = target: T5, Endoribonuclease toxin MazF (Escherichia coli K-12, UniProt P0AE70); assay: MazF toxin RNase activators, dose response, biochemical, fluorescence, single-stranded RNA substrate, uHTS hits (AID 588481); type: functional
# T5 sequence (P0AE70 whole entry): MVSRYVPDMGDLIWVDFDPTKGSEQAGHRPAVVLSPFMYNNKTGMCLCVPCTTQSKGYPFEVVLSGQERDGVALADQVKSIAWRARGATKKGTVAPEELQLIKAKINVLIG
# Large T antigen = Large T antigen (Simian virus 40, UniProt P03070); type: functional, Betapolyomavirus macacae;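 further: Confirmatory-stage PubChem screen for compounds that inhibit SV40 T antigen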
# [15] = target: G-protein coupled receptor 35 (Homo sapiens, UniProt Q9HC97); assay: GPR35 antagonists blocking zaprinast-driven arrestin recruitment, primary screen, imaging, U2OS, beta-arrestin-GFP, zaprinast agonist (AID 2058); type: functional;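 further: antagonist potency meaning inhibition of agonist-induced arrestin redistribution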
# Chain of G-protein coupled receptor 35 (Q9HC97 whole entry): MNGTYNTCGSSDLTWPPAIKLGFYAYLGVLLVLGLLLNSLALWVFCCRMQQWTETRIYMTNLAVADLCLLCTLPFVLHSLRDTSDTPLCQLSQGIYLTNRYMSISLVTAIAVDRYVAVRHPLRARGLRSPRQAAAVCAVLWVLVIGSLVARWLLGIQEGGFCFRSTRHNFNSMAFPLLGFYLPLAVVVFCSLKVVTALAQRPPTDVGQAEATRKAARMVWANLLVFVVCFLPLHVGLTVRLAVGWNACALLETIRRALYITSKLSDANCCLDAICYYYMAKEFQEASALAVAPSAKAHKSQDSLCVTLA
# [16] = target: G-protein coupled receptor 55 (Homo sapiens, UniProt Q9Y2T6); assay: GPR55 antagonists blocking LPI-driven arrestin recruitment, primary screen, imaging, U2OS, beta-arrestin-GFP, LPI agonist (AID 2013); type: functional;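 further: antagonist potency measured as reduced agonist-driven arrestin aggregation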
# Chain of G-protein coupled receptor 55 (Q9Y2T6 whole entry): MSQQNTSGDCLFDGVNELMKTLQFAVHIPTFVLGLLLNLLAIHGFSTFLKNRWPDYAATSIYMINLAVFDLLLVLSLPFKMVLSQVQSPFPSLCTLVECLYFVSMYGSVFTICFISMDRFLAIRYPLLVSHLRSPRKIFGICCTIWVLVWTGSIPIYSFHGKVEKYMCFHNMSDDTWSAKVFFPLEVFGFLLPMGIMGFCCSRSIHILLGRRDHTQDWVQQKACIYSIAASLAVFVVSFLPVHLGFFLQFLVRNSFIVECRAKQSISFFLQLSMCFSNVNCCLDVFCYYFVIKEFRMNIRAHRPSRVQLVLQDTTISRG
# Nonstructural protein 1 = Nonstructural protein 1 (Influenza A virus, UniProt Q194T2); type: functional, Influenza A virus (A/California/07/2009(H1N1))
# Chain of Nonstructural protein 1 (Q194T2 whole entry): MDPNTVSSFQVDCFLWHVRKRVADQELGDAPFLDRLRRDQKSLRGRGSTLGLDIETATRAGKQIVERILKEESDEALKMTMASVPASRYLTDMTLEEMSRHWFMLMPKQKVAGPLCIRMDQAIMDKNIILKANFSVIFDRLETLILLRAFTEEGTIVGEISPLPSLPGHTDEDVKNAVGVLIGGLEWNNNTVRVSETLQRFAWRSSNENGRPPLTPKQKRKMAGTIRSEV
# [17] = target: T5, Endoribonuclease toxin MazF; assay: fluorescent RNA oligo signal without MazF, dose response, counter-screen for MazEF activator project, biochemical, fluorescence, single-stranded RNase substrate (AID 588502); type: functional
# Aminopeptidase N = Aminopeptidase N (Plasmodium falciparum FcB1/Columbia, UniProt O96935); assay: P. falciparum M1AAP inhibitors, biochemical, fluorogenic H-Leu-NHMec substrate, 1536-well (AID 1445); design: species or system Plasmodium falciparum 3D7, 3D7
# Chain of Aminopeptidase N (O96935 whole entry): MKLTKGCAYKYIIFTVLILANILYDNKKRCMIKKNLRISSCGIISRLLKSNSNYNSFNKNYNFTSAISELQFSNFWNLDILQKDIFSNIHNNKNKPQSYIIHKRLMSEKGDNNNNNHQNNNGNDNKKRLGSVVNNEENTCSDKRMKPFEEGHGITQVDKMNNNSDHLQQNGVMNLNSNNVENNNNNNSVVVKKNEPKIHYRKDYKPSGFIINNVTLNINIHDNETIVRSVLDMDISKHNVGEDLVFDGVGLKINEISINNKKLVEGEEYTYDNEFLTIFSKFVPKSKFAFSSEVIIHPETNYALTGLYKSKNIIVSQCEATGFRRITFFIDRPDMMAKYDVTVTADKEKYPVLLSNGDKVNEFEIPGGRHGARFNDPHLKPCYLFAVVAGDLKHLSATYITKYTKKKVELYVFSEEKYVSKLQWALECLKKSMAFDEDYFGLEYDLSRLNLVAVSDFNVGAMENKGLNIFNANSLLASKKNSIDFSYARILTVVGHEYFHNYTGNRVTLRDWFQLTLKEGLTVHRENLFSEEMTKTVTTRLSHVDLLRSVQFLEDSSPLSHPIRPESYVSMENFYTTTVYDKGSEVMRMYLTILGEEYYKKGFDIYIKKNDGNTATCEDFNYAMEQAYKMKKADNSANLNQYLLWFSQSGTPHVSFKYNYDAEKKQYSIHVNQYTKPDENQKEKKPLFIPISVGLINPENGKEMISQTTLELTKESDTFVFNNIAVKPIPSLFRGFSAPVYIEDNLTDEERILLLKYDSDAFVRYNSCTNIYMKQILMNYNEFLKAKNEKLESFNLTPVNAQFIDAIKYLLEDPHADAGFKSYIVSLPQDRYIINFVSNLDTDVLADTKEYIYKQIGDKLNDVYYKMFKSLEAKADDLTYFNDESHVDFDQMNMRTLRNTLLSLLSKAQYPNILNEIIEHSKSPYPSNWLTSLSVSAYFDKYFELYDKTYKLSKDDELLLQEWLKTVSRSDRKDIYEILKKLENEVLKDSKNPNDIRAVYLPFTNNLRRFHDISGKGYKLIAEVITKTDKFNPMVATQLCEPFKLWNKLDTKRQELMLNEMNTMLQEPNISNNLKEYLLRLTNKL
# Chain of Polyadenylate-binding protein 1 (P11940 whole entry): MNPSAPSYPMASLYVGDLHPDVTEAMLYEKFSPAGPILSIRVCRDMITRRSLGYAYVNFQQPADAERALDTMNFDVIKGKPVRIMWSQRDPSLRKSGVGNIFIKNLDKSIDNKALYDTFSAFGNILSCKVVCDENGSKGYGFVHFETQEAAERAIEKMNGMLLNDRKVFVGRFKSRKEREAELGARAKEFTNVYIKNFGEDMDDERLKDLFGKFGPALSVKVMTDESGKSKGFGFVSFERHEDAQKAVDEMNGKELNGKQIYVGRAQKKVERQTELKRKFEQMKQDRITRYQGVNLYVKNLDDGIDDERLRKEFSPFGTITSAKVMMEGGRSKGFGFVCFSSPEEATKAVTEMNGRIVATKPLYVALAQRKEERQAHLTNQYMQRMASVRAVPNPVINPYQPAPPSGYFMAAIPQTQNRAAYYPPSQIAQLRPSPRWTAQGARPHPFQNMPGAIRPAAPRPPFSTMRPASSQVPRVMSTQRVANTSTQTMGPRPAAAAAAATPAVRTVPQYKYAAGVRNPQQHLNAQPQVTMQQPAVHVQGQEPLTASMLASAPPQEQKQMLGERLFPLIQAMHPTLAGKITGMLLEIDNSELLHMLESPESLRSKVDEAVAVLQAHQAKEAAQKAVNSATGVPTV
compound,measurement,setting,value
Cc1ccccc1N(C)S(=O)(=O)c1nnc(NC(=O)c2ccco2)s1,IC50,[1],67.8 µM (active)
same,IC50,[2],25.9 µM (active)
C=CCN(c1ccccc1OC)S(=O)(=O)c1ccc(Cl)c(C(=O)Nc2ccc(N3CCOCC3)cc2)c1,IC50,Tumor necrosis factor,13.2 µM (active)
same,IC50,HEK293 [3],> 20 µM (inactive)
same,IC50,HEK293 [4],> 20 µM (inactive)
same,EC50,HEK293 [5],12 µM (active)
same,IC50,HEK293 [6],14.4 µM (inactive)
same,IC50,[7],10.4 µM (active)
same,IC50,[8],14 µM (active)
same,IC50,HEK293 [9],> 20 µM (inactive)
O=C(Nc1ccccc1-c1ccccc1)NC1CC2CCCC(C1)N2CCc1ccccc1 (stereo not drawn),EC50,[10],51.2 µM (not active)
CC(=O)NC(=S)Nc1ccc(NC(=S)NC(=O)/C=C/c2ccco2)cc1,EC50,Streptococcus,5.33 µM (active)
same,EC50,[11],2.69 µM (active)
same,IC50,[1],> 100 µM (inactive)
same,IC50,[2],36.7 µM (active)
C=CCSC1=Nc2sccc2C2=NC(=O)CN12,EC50,[12],18.5 µM (active)
same,EC50,[10],> 100 µM (not active)
Cc1ccc(-n2c3nc(=O)[nH]c(=O)c-3cc3cc([N+](=O)[O-])ccc32)cc1C,IC50,Hexokinase HKDC1,6.47 µM (active)
same,EC50,[13],10 µM (active)
same,CC50,Vero,29.7 µM (active)
same,IC50,Genome polyprotein,65.1 µM (active)
CN(C)/C=C/C=C/C=C/C1=[N+](C)c2ccccc2C1(C)C,EC50,[14],> 99 µM (inactive)
same,IC50,Large T antigen,27.8 µM (active)
same,IC50,[15],1.82 µM (active)
same,IC50,[16],2.05 µM (active)
same,IC50,Nonstructural protein 1,5.75 µM (active)
same,EC50,[17],89.5 µM (inactive)
O=C(c1cnc2n(c1=O)CCS2)N(C1CCCCC1)C1CCCCC1,IC50,Aminopeptidase N,149 µM (active)
O=C(Nc1nc2ccccc2n1Cc1ccc(Cl)cc1)c1cccs1,IC50,Tumor necrosis factor,> 20 µM (inactive)
same,IC50,HEK293 [3],> 20 µM (inactive)
same,IC50,[7],> 20 µM (inactive)
same,IC50,[8],> 20 µM (inactive)
COc1ccccc1-c1nnc(SC/C(O)=C(\C#N)c2nc3ccccc3[nH]2)n1C1CCCCC1,IC50,Aminopeptidase N,52.2 µM (active)
